Results published in article PMC8454699, “Structure and function of aerotolerant, multiple-turnover THI4 thiazole synthases” (Biochemical Journal, 2021).

Target: T1, Thermovibrio ammonificans THI4 (TaTHI4) (Thermovibrio ammonificans, UniProt E8T346)
T1 construct: N-terminal His6 tag (pBAD24, recoded gene), E. coli BL21(DE3); homooctamer, four monomers per asymmetric unit; anaerobically reconstituted with Fe(II), NAD+ and glycine
Test: X-ray crystallography, […] A
Assay type: binding
Conditions: reaction intermediate formed from NAD+ and glycine; Fe(II)-reconstituted, anaerobic; pH 7.5, 22 °C; active site, pincer-type ligand of Fe(II)

CC(N=CC(=O)O)C(=O)C(O)COP(=O)(O)OP(=O)(O)OC[C@H]1O[C@@H](n2cnc3c(N)ncnc32)[C@H](O)[C@@H]1O (stereo partly shown) [glycine imine intermediate]
X-ray crystallography, 2.3 A: Clear density for the TaTHI4 treated with NAD and glycine shows the expected glycine imine
